Data reported in patent US20250319292A1, “MICRONEEDLES AND METHODS FOR TREATING THE SKIN” (THE BRIGHAM AND WOMEN'S HOSPITAL, INC., priority 2021, published 2025).

B1: soluble CCL22: C-C motif chemokine 22 added in solution, from PeproTech (protein, UniProt O00626 25-93, looked up)
C-C motif chemokine 22: GPYGANMEDSVCCRDYVRYRLPLRVVKHFYWTSDSCPRPGVVLLTFRDKEICADPRVPWVKMILNKLSQ

How the values were obtained:
THP-1 cells = assay: Cytotoxicity studies of digestion media (TCEP); type: cell-based; conditions: TCEP 0.1 mM to 100 mM, 10 minutes
Method: Human monocyte THP-1 cells (ATTC) were maintained in RPMI 1640 supplemented with 10% FBS, 2 mM L-glutamine, 25 mM HEPES, 100 μg/mL Normocin™ (InvivoGen) and 100 U/mL penicillin and 100 μg/mL streptomycin. Cell lines were maintained in a humidified incubator at 37° C., 5% CO2.
THP-1 cells were incubated with different concentrations of digestion media (TCEP solution in supplemented media), ranging from 0.1 mM to 100 mM, for 10 minutes. Thereafter, digestion media was removed, and cells were stained using the LIVE/DEAD™ fixable Violet Dead Cell Stain Kit (Thermo Fisher Scientific, USA) following the manufacturer's guidelines. Dead cells were analyzed by flow cytometry using a BD LSRFortessa™ flow cytometer.

Tregs = assay: CCL22-dependent trans-well migration assay; type: cell-based, C57BL/6 mice; conditions: 0, 10 and 100 ng/ml, 3 hours, CD3+ T cells
Method: Recruitment of Tregs as a function of CCL22 was assessed in a 24-well plate containing a 5 μm-pore polycarbonate Transwell® filter system (Costar Transwell® permeable support #3421). MNs loaded with incremental amounts of CCL22 ([…] and 100 ng) or equivalent dose of soluble CCL22 were added in the receiver wells and incubated at 37° C. for 1 hour. 5×10^5 CD3^+ T cells were magnetically isolated from C57BL/6 mice using mouse T cell isolation kit (EasySep™, #19851) and resuspended in full culture media and added to the top wells. Cells were then incubated at 37° C. and 5% CO2 for 3 hours. Cells in the receiver well were then harvested and stained with Fixed viability dye, anti-CD3, CD4, CD25, and Foxp3 antibodies and analyzed by flow cytometry.
Next, the biological activity of chemokines when loaded in the MNs was examined. Specifically, the ability of CCL22 to mediate Tregs recruitment when delivered using the MN platform through a trans-well migration assay was studied. Briefly, ranging concentrations of CCL22, either MN-doped or soluble, were incubated with CD3^+ T cells, and the number of migrated Tregs was analyzed after 3 hours of incubation by flow cytometry. […] This can stem from the maintenance of a higher gradient of CCL22 when released from the MNs compared to soluble CCL22 (FIG. 3C).

| Molecule | cell viability (THP-1 cells) | Tregs migration as a function of CCL22 concentration (Tregs) |
| --- | --- | --- |
| O=C(O)CCP(CCC(=O)O)CCC(=O)O [TCEP, tris (2-carboxyethyl) phosphine] | highly biocompatible and did not affect cell viability | – |
| B1 | – | dose-dependent increase of Tregs migration |
